According to US7947280B2 (priority 2003, dated 2011):
“Also recorded” adds a separate entry of the source.

Experiments:
APJ [1] = target: T1, APJ (Homo sapiens, UniProt P35414); conditions: cited from earlier work
T1 sequence (P35414 1-380): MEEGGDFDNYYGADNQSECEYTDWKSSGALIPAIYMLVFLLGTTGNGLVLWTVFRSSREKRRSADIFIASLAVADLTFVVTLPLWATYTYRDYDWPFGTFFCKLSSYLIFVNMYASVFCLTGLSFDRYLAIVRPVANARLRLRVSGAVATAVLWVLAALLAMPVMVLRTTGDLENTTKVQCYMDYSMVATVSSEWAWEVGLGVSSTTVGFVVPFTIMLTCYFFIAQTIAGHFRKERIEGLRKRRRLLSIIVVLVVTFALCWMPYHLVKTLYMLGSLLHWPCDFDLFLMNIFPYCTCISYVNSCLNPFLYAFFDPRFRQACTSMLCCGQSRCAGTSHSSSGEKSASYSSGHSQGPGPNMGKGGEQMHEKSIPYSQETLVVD

C57B/16 mice = assay: Magnetic resonance imaging after intraperitoneal apelin-12 injection; assay type: in vivo, mouse; conditions: post apelin-12 300 μg/kg intraperitoneal, one hour prior to scanning; n=9
Procedure: Magnetic resonance imaging. […] Platinum needle ECG leads were inserted subcutaneously. Respiration was monitored by means of a pneumatic pillow sensor positioned against the abdomen. Mouse body temperature was maintained during scanning at 37° C. by a flow of heated air thermostatically controlled by a rectal temperature probe. Magnetic resonance images were acquired on a 4.7T Oxford magnet controlled by a Varian Inova console (Varian, Palo Alto, Calif.) using a transmit-receive, quadrature, volume coil with an inner diameter of 3.5 cm. Image acquisition was gated to respiration and to the ECG R wave (SA Instruments, Stony Brook, N.Y.). Coronal and sagittal scout images led to the acquisition of multiple contiguous 1 mm thick, short axis slices orthogonal to the interventricular septum. […] Planimetry measurements of end diastolic and end systolic dimension were derived offline from short axis views of the left ventricle at the level of the papillary muscles using ImageJ software (National Institutes of Health, Bethesda, Md.). Ejection fraction was calculated as [[…]. Data Analysis. […] Exact p values are reported for all comparisons.

[2] = test system: superoxide production in aortic sections; assay: Dihydroethidium oxidative fluorescence microtopography; assay type: in vivo, mouse
Procedure: Oxidative fluorescent microtopography. Superoxide was detected in the layers of the vessel wall using fluorescent probe dihydroethidium as described previously. Fresh segments of upper descending thoracic aorta were frozen in OCT compound. […] Molecular Probes). Images were obtained on a confocal microscope (Bio-Rad MRC-1024 laser; filter settings: excitation filter 488 nm; emission filter 550 nm). 2-hydroxyethidium fluorescence was measured from high power (60× mag) images. Endothelium by quantifying fluorescence (intensity×area) on the luminal side of the internal elastic lamina, media between the internal and external elastic lamina, and adventitia outside the external elastic lamina. Quantification was performed using Image Pro Plus software (Media Cybernetics, Silver Springs, Md.). Medial Analysis was performed blind to the samples identity.

AT1R = target: T2, AT1R (Rattus norvegicus, UniProt P25095); assay: Competitive ligand binding with FAM-labeled AngII in HEK-293 cells; conditions: unlabeled ligand 100 nM; HEK-293 cells transfected with AT1R
T2 construct: expressed in transfected cells; host or cells: HEK-293
T2 sequence (P25095 1-359): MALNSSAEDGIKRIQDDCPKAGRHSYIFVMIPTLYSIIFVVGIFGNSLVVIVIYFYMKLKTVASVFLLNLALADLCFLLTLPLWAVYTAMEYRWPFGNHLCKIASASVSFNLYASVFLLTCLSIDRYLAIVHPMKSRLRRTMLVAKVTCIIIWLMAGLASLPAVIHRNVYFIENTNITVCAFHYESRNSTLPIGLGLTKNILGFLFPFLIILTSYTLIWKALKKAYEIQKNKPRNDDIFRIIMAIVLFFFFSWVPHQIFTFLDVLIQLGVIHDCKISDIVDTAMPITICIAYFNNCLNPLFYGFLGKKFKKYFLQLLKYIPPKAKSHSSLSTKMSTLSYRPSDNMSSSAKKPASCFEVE

[3] = test system: AT1R and APJ heterodimerization; assay: AT1R-APJ receptor heterodimerization by immunoprecipitation; assay type: cell-based; conditions: AngII, 1 and 6 hours of treatment; co-transfected cells
Procedure: (§1) Cells were immediately lysed.
Immunoprecipitation and Western Blotting Immunoprecipitation was performed as previously described (REF). In brief, cells were lysed using 10× Cell Lysis Buffer (Cell Signaling Technologies CITY). Lysates were precleared with protein G and immunoprecipitation was performed with the respective antibodies at concentration of 1 mg/mL for 24 hrs at 4C. Protein G agarose was added and incubated for additional 2 hours. Western blotting on SDS-PAGE gels were performed as previously described, and the bands were visualized using the enhanced chemiluminescence system (Amersham Biosciences).

[4] = test system: NFκB, NFAT, AP-1 and SRE reporter constructs; assay: Luciferase reporter assays of AngII nuclear signaling in HEK-293 cells; assay type: cell-based; conditions: HEK-293 cells co-transfected with AT1; AngII stimulation
Source text: cDNA Constructs APJ expression construct was purchased from cDNA.org. AT1R construct was obtained from Dr. Marc Caron. AT1R transcript was inserted into a pEGFP-N1 vector (Clonetech). The NF-kB and SRE luciferase reporter constructs were obtained from BD Biosciences.
as §1

ApoE-KO mice [5] = assay: Atherosclerotic lesion analysis in ApoE-KO mice; assay type: in vivo, mouse
Procedure: Animals. Mice were maintained in temperature-controlled (20° C. to 22° C.) environment with a 12-hour light-dark cycle. […] All mice were C57BL/6J ApoE-KO male mice (Jackson Laboratories, Bar Harbor, […].) between the ages of 8-12 weeks. […] Animal procedures were carried out in accordance with the Institutional Review Board Guidelines at Stanford University.
Tissue preparation, histology and lesion quantification. Mice were euthanized 28 days following implantation of osmotic mini-pumps. The thoracic cage was removed and the animal perfused with phosphate buffered saline solution (PBS) for 2 minutes. The entire aorta and vein graft were exposed and the periadventitial tissue and scar tissue dissected and removed. Subsequently mice were perfusion fixed in situ with 4% phosphate-buffered paraformaldehyde. In some animals aorta and lung were removed fresh for biochemical assays.
Atherosclerotic Lesion Analysis Atherosclerosis lesion area was determined as described previously. Briefly, the arterial tree was perfused with PBS (pH 7.3) and then perfusion fixed with phosphate-buffered paraformaldehyde (3%, pH 7.3). The heart and full length of the aorta-to-iliac bifurcation was exposed and dissected carefully from any surrounding tissues. Aortas were then opened along the ventral midline and dissected free of the animal and pinned out flat, intimal side up, onto black wax. Aortic images were captured with a digital camera (DMC1) mounted on a Leica MZ6 stereomicroscope and analyzed using Fovea Pro (Reindeer Graphics, Asheville, N.C.). Percent lesion area was calculated as total lesion area divided by total surface area.

[6] = test system: superoxide production in aortic tissue of apoE knockout mice; assay: Lucigenin-enhanced chemiluminescence of aortic superoxide; assay type: in vivo, mouse
Procedure: Lucigenin-enhanced chemiluminescence. Total aortic superoxide was measured by lucigenin-enhanced chemiluminescence as described previously. Aortas were harvested flushed with Krebs-HEPES buffer, opened longitudinally and divided into halves. Vessels were gassed with 95% oxygen/5% carbon dioxide in warmed Krebs-HEPES buffer for 30 minutes before measurements of chemiluminescence in a luminometer (manufacturer, location) using 20 μmol/L lucigenin. One half of each vessel was incubated in L-NAME (1 mmol/L). After measuring baseline readings for 4 minutes, samples were equilibrated and dark adapted for 5 mins, and chemiluminescence was recorded for 10 minutes. Recordings were performed blinded to the samples identity. Results were expressed as counts per second per milligram of tissue dry weight.

ApoE-KO mice [7] = assay: AngII induced abdominal aortic aneurysm formation model; assay type: in vivo, mouse
Procedure: (§2) Animals. Mice were maintained in temperature-controlled (20° C. to 22° C.) environment with a 12-hour light-dark cycle. Sterile water and standard chow diet were available ad libitum. All mice were C57BL/6J ApoE-KO male mice (Jackson Laboratories, Bar Harbor, […].) between the ages of 8-12 weeks. […] Animal procedures were carried out in accordance with the Institutional Review Board Guidelines at Stanford University.
Abdominal aortic aneurysm formation, sudden death and vein graft procedure. […] Abdominal aortic aneurysm was defined as ≧50% enlargement of the maximal abdominal aorta diameter. Mice that were found dead without any preceding signs of suffering were defined as sudden death.

APJ [8] = target: T1, APJ; conditions: cited from earlier work; remark: listed apart in the source
ApoE-KO mice [9] = assay: Vein graft neointimal hyperplasia model; assay type: in vivo, mouse; conditions: AngII infusion
Procedure: as §2

For apelin-17, the “activation of APJ” value (APJ [1]) is given as “activate APJ”.

For “H-Leu-Val-Gln-Pro-Arg-Gly-Ser-Arg-Asn-Gly-Pro-Gly-Pro-Trp-Gln-Gly-Gly-Arg Arg-Lys-Phe-Arg-Arg-Gln-Arg-Pro-Arg-Leu-Ser-His-Lys-Gly-Pro-Met-Pro-Phe-OH (H-LVQPRGSRNGPGPWQGGRRKFRRQRPRLSHKGPMPF-OH; listed as Homo sapiens) [apelin-36]”, the “activation of APJ” value (APJ [1]) is given as “activate APJ”.

For “H-Arg-Pro-Arg-Leu-Ser-His-Lys-Gly-Pro-Met-Pro-Phe-OH [apelin-12]”, the Ejection fraction (C57B/16 mice) was “upward trend”, the “heart rate (inverse of R-R interval of electrocardiogram)” value (C57B/16 mice) was “significant increase” and the “left ventricular end diastolic area” value (C57B/16 mice) was “significant reduction; also recorded: significantly decreased”. For the same compound, the “activation of APJ” value (APJ [1]) was “activate APJ”.

For `COc1cc(C(C)=O)ccc1O` [apocynain], the “total medial fluorescence after incubation with NADPH oxidase inhibitor” value ([2]; aortic sections from apelin treated mice) was “did not find this effect” and the “total medial fluorescence after incubation with NADPH oxidase inhibitor” value ([2]; aortic sections from saline, AngII and apelin+AngII treated mice, 50 μmol/l) was “dramatically reduced; also recorded: blocked”.

In the case of “angiotensin II (DRVYIHPF) [AngII, peptide infused to promote vascular disease and heart failure; AT1R ligand, reference compound]”, the “competition for binding of FAM-AngII (10 nM) to AT1R” value (AT1R) is reported as “competes”, the AT1R-APJ receptor heterodimerization [3] is reported as “significantly enhanced” and the “reporter transcription (NFκB, NFAT, AP-1, SRE)” value [4] is reported as “significant increase”. The “increase of descending aorta atherosclerosis vs saline treated controls” value (ApoE-KO mice [5]; AngII 1.4 mg/kg/day, 4 week minipump infusion) was 82%, the “progression of atherosclerosis in aortic root (FIG. 17)” value (ApoE-KO mice [5]; osmotic minipump during high fat diet exposure) was “do not alter” and the “increase in total chemiluminescence (superoxide)” value ([6]; AngII infusion) was 10 fold. The “animals with aneurysm formation” value (ApoE-KO mice [7]; AngII for four weeks) was 11/12, the “incidence of AAA formation within 4 weeks” value (ApoE-KO mice [7]; single agent infusion) was 92% and the “binding to APJ” value (APJ [8]) was “does not bind”. For the same compound, the “increase of vein graft wall area vs saline treated controls” value (ApoE-KO mice [9]) was 33%.

For `COC(=O)[C@@H](N)CCCNC(=N)N[N+](=O)[O-]` [L-NAME], the “increase in total superoxide production on incubation with L-NAME” value ([6]; aorta from apelin treated mice, L-NAME 1 mmol/L) was 2 fold and the “total superoxide levels on incubation with L-NAME” value ([6]; aorta from saline, AngII or AngII+apelin treated animals, L-NAME 1 mmol/L) was “not significantly different”.
